Tests used:
[1] = test system: mouse; conditions: Carcinogenicity; cd1; Oral; Feed; dose end: 78 week; group: systemic; systemic / pathology microscopic / kidney / nephropathy
[2] = test system: dog; conditions: Chronic toxicity, beagle, Oral, Capsule, dose end: 52 week, group: systemic
[3] = test system: rat; conditions: Multigenerational reproductive toxicity study, sprague dawley, Oral, Feed, dose end: 2 generation
[4] = test system: rat; conditions: Combined chronic toxicity/carcinogenicity, sprague dawley, Oral, Feed, dose end: 24 month, group: systemic
[5] = test system: dog; conditions: Subchronic oral toxicity in nonrodent, beagle, Feed, dose end: 90 day, group: systemic
[6] = test system: rat; conditions: Prenatal developmental toxicity study, sprague dawley, Oral, Gavage/Intubation, dose end: 17 GD
[7] = test system: rat; conditions: Subchronic oral toxicity in rodents, sprague dawley, Feed, dose end: 90 day, group: systemic
[8] = test system: rat; conditions: Subchronic oral toxicity in rodents, wistar, Feed, dose end: 13 week, group: systemic
[9] = test system: rat; conditions: Chronic toxicity; wistar; Oral; Gavage/Intubation; dose end: 27 week; group: systemic; systemic / clinical chemistry / bile acids / bile acids + systemic / clinical chemistry / cholesterol / cholesterol + systemic / clinical …
[10] = test system: rat; conditions: Combined chronic toxicity/carcinogenicity; wistar; Oral; Gavage/Intubation; dose end: 104 week; group: systemic; systemic / in life observation / mortality / mortality + systemic / pathology microscopic / intestine large / [other] + systemic / pathology…
[11] = test system: mouse; conditions: Combined chronic toxicity/carcinogenicity, cd1, Oral, Gavage/Intubation, dose end: 104 week, group: systemic
[12] = test system: primate; conditions: Subchronic oral toxicity in nonrodent, macaque, Gavage/Intubation, dose end: 13 week
[13] = test system: rat; conditions: Sub-acute repeat dose toxicity, wistar, Oral, Gavage/Intubation, dose end: 33 day, group: systemic
[14] = systemic / in life observation / body weight / body weight gain + systemic / organ weight / liver / relative to body weight + systemic / …
[15] = group: offspring, systemic / in life observation / body weight / offspring (pup) weight
[16] = group: parental, systemic / in life observation / body weight / body weight + systemic / in life observation / body weight / body weight gain + systemic / in…
[17] = systemic / clinical chemistry / gamma glutamyl transferase (ggt) / gamma glutamyl transferase (ggt)
[18] = systemic / clinical chemistry / lipids / phospholipids
[19] = group: developmental, developmental / developmental malformation / bone / [other]
[20] = group: developmental, developmental / developmental malformation / bone / [other] + developmental / developmental malformation / other / other + developmental / …
[21] = group: maternal, systemic / in life observation / body weight / body weight + systemic / in life observation / body weight / body weight gain + systemic / in…
[22] = systemic / clinical chemistry / aspartate aminotransferase (ast/sgot) / aspartate aminotransferase (ast/sgot) + systemic / clinical …
[23] = systemic / clinical chemistry / cholesterol / cholesterol + systemic / clinical chemistry / lipids / phospholipids + systemic / hematology…
[24] = systemic / in life observation / clinical signs / lack of coordination + systemic / in life observation / clinical signs / voluntary muscle …
[25] = systemic / pathology microscopic / gallbladder / adenoma + systemic / pathology microscopic / gallbladder / hemangioma + systemic / …
[26] = systemic / pathology microscopic / gallbladder / adenoma + systemic / pathology microscopic / gallbladder / hyperplasia + systemic / …
[27] = group: maternal, reproductive / reproductive performance / estrous cycle / abnormal
[28] = group: systemic, systemic / clinical chemistry / gamma glutamyl transferase (ggt) / gamma glutamyl transferase (ggt) + systemic / clinical chemistry / …
[29] = systemic / clinical chemistry / albumin / albumin + systemic / clinical chemistry / chloride / chloride + systemic / clinical chemistry / …
[30] = systemic / clinical chemistry / potassium / potassium + systemic / clinical chemistry / triglycerides / triglycerides + systemic / organ …

Work on `CC(COc1ccc(Oc2ccccc2)cc1)Oc1ccccn1` (centres undefined) [Pyriproxyfen] yielded an LEL [1] of 420 mg/kg/day, an LOAEL [1] of 420 mg/kg/day and an NEL [1] of 84 mg/kg/day. The NOAEL [1] was 84 mg/kg/day, the LEL ([2]; systemic / in life observation / body weight / body weight gain + systemic / clinical chemistry / cholesterol / cholesterol + systemic / …) was 100 mg/kg/day and the LOAEL ([2]; systemic / in life observation / body weight / body weight gain + systemic / organ weight / liver / relative to body weight) was 300 mg/kg/day. It also gave an NEL [2, 14] of 30 mg/kg/day, an NOAEL [2, 14] of 100 mg/kg/day and an LEL [3, 15] of 453 mg/kg/day. It also gave an LOAEL [3, 15] of 453 mg/kg/day, an NEL [3, 15] of 87 mg/kg/day and an NOAEL [3, 15] of 87 mg/kg/day. It also gave an LOAEL [3, 16] of 453 mg/kg/day, an NEL [3, 16] of 18 mg/kg/day and an NOAEL [3, 16] of 87 mg/kg/day. The LEL ([3]; group: parental, systemic / organ weight / liver / relative to body weight + systemic / pathology microscopic / kidney / inflammation + systemic / organ …) was 87 mg/kg/day, the LEL [4, 17] was 7.04 mg/kg/day and the NEL [4, 17] was < 7.04 mg/kg/day. It also gave an NOAEL ([4]; systemic / clinical chemistry / gamma glutamyl transferase (ggt) / gamma glutamyl transferase (ggt) + systemic / in life observation / body …) of 35.1 mg/kg/day, an LOAEL ([4]; systemic / in life observation / body weight / body weight) of 183 mg/kg/day and an LEL [5, 18] of 100 mg/kg/day. For the same compound, the NEL [5, 18] was < 100 mg/kg/day, the NOAEL ([5]; systemic / pathology microscopic / liver / hypertrophy + systemic / clinical chemistry / alpha-1 globulin / alpha-1 globulin + systemic / …) was 100 mg/kg/day and the LOAEL ([5]; systemic / pathology microscopic / liver / hypertrophy + systemic / organ weight / liver / absolute + systemic / organ weight / liver / …) was 300 mg/kg/day. It also gave an LEL [6, 19] of 300 mg/kg/day, an LOAEL [6, 19] of 300 mg/kg/day and an NEL [6, 20] of 100 mg/kg/day. For the same compound, the NOAEL [6, 20] was 100 mg/kg/day, the LEL [6, 21] was 300 mg/kg/day and the LOAEL [6, 21] was 300 mg/kg/day. The NEL [6, 21] was 100 mg/kg/day, the NOAEL [6, 21] was 100 mg/kg/day and the LEL [7, 22] was 23.5 mg/kg/day. For the same compound, the NEL [7, 22] was < 23.5 mg/kg/day, the LOAEL [7, 23] was 118 mg/kg/day and the NOAEL [7, 23] was 23.5 mg/kg/day.
`CC1(C)[C@H](C(=O)O[C@H](C#N)c2cccc(Oc3ccccc3)c2)[C@@H]1/C=C(\Cl)C(F)(F)F` [gamma-Cyhalothrin] showed an LOAEL [8, 24] of 6.6 mg/kg/day, an NEL [8, 24] of 0.7 mg/kg/day and an NOAEL [8, 24] of 3.4 mg/kg/day. It also gave an LEL ([8]; systemic / organ weight / liver / relative to body weight) of 3.4 mg/kg/day.
With `Cc1oc(-c2ccccc2)nc1CCOc1ccc(C[C@H](Nc2ccccc2C(=O)c2ccccc2)C(=O)O)cc1` [Farglitazar] the LEL [9] was 0.5 mg/kg/day, the LOAEL [9] was > 50 mg/kg/day and the NEL [9] was < 0.5 mg/kg/day. For the same compound, the NOAEL [9] was ≥ 50 mg/kg/day, the LEL [10] was 0.5 mg/kg/day and the LOAEL [10] was > 20 mg/kg/day. The NEL [10] was < 0.5 mg/kg/day, the NOAEL [10] was ≥ 20 mg/kg/day and the LOAEL [11, 25] was > 50 mg/kg/day. The NOAEL [11, 25] was ≥ 50 mg/kg/day, the LEL [11, 26] was 1 mg/kg/day and the NEL [11, 26] was < 1 mg/kg/day. The LEL [12, 27] was 50 mg/kg/day, the LOAEL [12, 27] was > 50 mg/kg/day and the NEL [12, 27] was 5 mg/kg/day. The NOAEL [12, 27] was ≥ 50 mg/kg/day, the LEL [12, 28] was 0.5 mg/kg/day and the LOAEL [12, 28] was > 50 mg/kg/day. For the same compound, the NEL [12, 28] was < 0.5 mg/kg/day, the NOAEL [12, 28] was ≥ 50 mg/kg/day and the LOAEL [13, 29] was > 500 mg/kg/day. The NOAEL [13, 29] was ≥ 500 mg/kg/day, the LEL [13, 30] was 0.5 mg/kg/day and the NEL [13, 30] was < 0.5 mg/kg/day.
